3 molecules from patent US10806142B2, “2-amino-5-ketoxime-pyrimidine derivatives and their use for controlling undesired plant growth” (Bayer CropScience Aktiengesellschaft, priority 2015, dated 2020) can be followed below.

Each structure is given as a SMILES string.

A short description of data set [1]: logp (HCOOH), physicochemical characterization. Particulars: HCOOH (formic acid).
The test system of data set [2] is Matricaria inodora. The data set is described as follows: Pre-emergence herbicidal effect. Format: in vivo. Particulars: dosage 320 g a.i./ha. The text has this: (§1) 1. Pre-Emergence Herbicidal Effect and Crop Plant Compatibility Seeds of monocotyledonous and dicotyledonous weed plants and crop plants are laid out in wood-fiber pots in sandy loam and covered with soil. The compounds of the invention, formulated in the form of wettable powders (WP) or as emulsion concentrates (EC), are then applied to the surface of the covering soil as aqueous suspension or emulsion at a water application rate equating to 600 to 800 L/ha with addition of 0.2% wetting agent. After the treatment, the pots are placed in a greenhouse and kept under good growth conditions for the trial plants. The damage to the trial plants is scored visually after a trial duration of 3 weeks by comparison with untreated controls (herbicidal activity in percent (%): 100% efficacy=the plants have died, 0% efficacy=like control plants). [table]

For data set [3], the system named is Echinochloa crus-galli. The data set can be described thus: Pre-emergence herbicidal effect. The format is in vivo. The conditions noted are these: dosage 320 g a.i./ha.
Description: as §1

Data set [4] relates to Stellaria media. The data set can be described thus: Pre-emergence herbicidal effect. The format is in vivo.
Description: as §1

The test system of data set [5] is Veronica persica. The data set is described as follows: Pre-emergence herbicidal effect. The format is in vivo.
Description: as §1

Data set [6] relates to Setaria viridis. The data set is described as follows: Pre-emergence herbicidal effect. Format: in vivo. Particulars: dosage 320 g a.i./ha.
Description: as §1

For data set [7], the system named is Amaranthus retroflexus. The data set can be described thus: Pre-emergence herbicidal effect. The conditions noted are these: dosage 320 g a.i./ha. The format is in vivo.
Description: as §1

Data set [8] deals with Viola tricolor. The data set can be described thus: Pre-emergence herbicidal effect. Format: in vivo.
Description: as §1

Data set [9] concerns Polygpnum convolvulus. The data set can be described thus: Post-emergence herbicidal effect. The format is in vivo. The procedure:
(§2) [table] 2. Post-Emergence Herbicidal Effect and Crop Plant Compatibility Seeds of monocotyledonous and dicotyledonous weed and crop plants are laid out in sandy loam in wood-fiber pots, covered with soil and cultivated in a greenhouse under good growth conditions. 2 to 3 weeks after sowing, the test plants are treated at the one-leaf stage. The compounds of the invention, formulated in the form of wettable powders (WP) or as emulsion concentrates (EC), are then sprayed onto the green parts of the plants as aqueous suspension or emulsion at a water application rate equating to 600 to 800 L/ha with addition of 0.2% wetting agent. After the trial plants have been left to stand in a greenhouse under optimal growth conditions for about 3 weeks, the efficacy of the formulations is scored visually in comparison to untreated controls (herbicidal action in percent (%): 100% efficacy=the plants have died, 0% efficacy=like control plants).

Data set [10] concerns Abutilon theophrasti. The data set is described as follows: Post-emergence herbicidal effect. Format: in vivo. Particulars: visual score after about 3 weeks. The procedure: as §2
Data set [11] relates to Stellaria media. The data set is described as follows: Post-emergence herbicidal effect. The conditions noted are these: visual score after about 3 weeks. Format: in vivo. The procedure:
as §2

The test system of data set [12] is Viola tricolor. The data set is described as follows: Post-emergence herbicidal effect. The format is in vivo. The procedure: as §2
Data set [13] relates to Polygpnum convolvulus. The data set can be described thus: Pre-emergence herbicidal effect. Format: in vivo. The conditions noted are these: dosage 320 g a.i./ha.
Description: as §1

The subject of data set [14] is Setaria viridis. The data set is described as follows: Post-emergence herbicidal effect. The format is in vivo. Particulars: dosage cell empty. As to the method:
as §2

For data set [15], the system named is Ipomoea purpurea. The data set is described as follows: Post-emergence herbicidal effect. The format is in vivo. Particulars: dosage cell empty, first line of the compound. The procedure:
as §2

The mark [16] stands for this setting: dosage 80 g a.i./ha, visual score after about 3 weeks.
The mark [17] stands for this setting: dosage 320 g a.i./ha, visual score after about 3 weeks.
The mark [18] stands for this setting: dosage cell empty, first line of the compound.

With `CCCC/C(=N\O)c1cnc(N[C@H]2c3cc(C)ccc3C[C@@H]2C)nc1` [Compound 1.85a, N-[(1R,2S)-2,6-Dimethyl-2,3-dihydro-1H-inden-1-yl]-5-[(1E)-N-hydroxypentanimidoyl]pyrimidine-2-amine], the chromatographic logP in data set [1] came out at 3.86. Moreover, the “Herbicidal activity against MATIN” value in data set [2] is listed as 100%. Also, the “Herbicidal activity against ECHCG” value in data set [3] came to 100%. The “Herbicidal activity against STEME” value stood at 100% in data set [4] (dosage 80 g a.i./ha), 100% in data set [4] (dosage 320 g a.i./ha), 80% in data set [11] (dosage 80 g a.i./ha) and 90% in data set [11] (dosage 320 g a.i./ha). Also, the “Herbicidal activity against VERPE” value in [5] (dosage 80 g a.i./ha) and in data set [5] (dosage 320 g a.i./ha) was 100% throughout. The “Herbicidal activity against SETVI” value in data set [6] amounted to 100%. In data set [7], the “Herbicidal activity against AMARE” value is 80%. The “Herbicidal activity against VIOTR” value is on record as 100% in [8] (dosage 80 g a.i./ha), 100% in data set [8] (dosage 320 g a.i./ha), 80% in data set [12] (setting [16]) and 90% in data set [12] (setting [17]). The “Herbicidal activity against POLCO” value in data set [9] (setting [16]) and in data set [9] (setting [17]) was 80% in each case. The “Herbicidal activity against ABUTH” value in [10] (dosage 80 g a.i./ha) is recorded as 80%; in [10] (dosage 320 g a.i./ha) it was 100%.

The molecule `CCCC/C(=N/O)c1cnc(N[C@H]2c3cc(C)ccc3C[C@@H]2C)nc1` [Compound 1.85b, N-[(1R,2S)-2,6-dimethyl-2,3-dihydro-1H-inden-1-yl]-5-[(1Z)-N-hydroxypentanimidoyl]pyrimidine-2-amine] showed a chromatographic logP in data set [1] of 4.1. Further, the “Herbicidal activity against POLCO” value in [13] is 90%. The “Herbicidal activity against MATIN” value in data set [2] amounted to 80%. The “Herbicidal activity against STEME” value in [4] (dosage 80 g a.i./ha) and in data set [4] (dosage 320 g a.i./ha) was 100% throughout. The “Herbicidal activity against VERPE” value in [5] (dosage 80 g a.i./ha) and in [5] (dosage 320 g a.i./ha) was 100% throughout. Moreover, the “Herbicidal activity against AMARE” value in data set [7] is on record as 80%. Moreover, the “Herbicidal activity against VIOTR” value in data set [8] (dosage 80 g a.i./ha) and in data set [8] (dosage 320 g a.i./ha) was 100% each time.

Take `CC/C(=N/OCc1ccc(Cl)cc1)c1cnc(N[C@H]2c3cc(C)ccc3C[C@@H]2C)nc1CC` [Compound 1.115b, 5-{(1Z)-N-[(4-Chlorobenzyl)oxy]propanimidoyl}-N-[(1R,2S)-2,6-dimethyl-2,3-dihydro-1H-inden-1-yl]-4-ethylpyrimidine-2-amine]: in [2], the “Herbicidal activity against MATIN” value is 90%. For the same molecule, the “Herbicidal activity against STEME” value in data set [4] (dosage 320 g a.i./ha) came out at 100%. The “Herbicidal activity against VERPE” value in [5] (dosage 80 g a.i./ha) and in data set [5] (dosage 320 g a.i./ha) was 100% throughout. Further, the “Herbicidal activity against VIOTR” value was 90% in data set [8] (dosage 80 g a.i./ha); 100% in data set [8] (dosage 320 g a.i./ha); 90% in data set [12] (setting [18]); 80% in data set [12] (dosage cell empty, second line of the compound). Further, the “Herbicidal activity against POLCO” value in [9] (setting [18]) is 80%. For the same molecule, the “Herbicidal activity against SETVI” value in data set [14] (first line of the compound) came out at 100%; in data set [14] (second line of the compound) it was 80%. The “Herbicidal activity against PHBPU” value in [15] is recorded as 90%.
